Experimental findings from ChEMBL document CHEMBL1201862, “PubChem BioAssay data set” (2004) are described below.

What all share (assay): NCI tumour cell line growth inhibition, 48 h
Assay [1] has as its system 786-0.
Assay [2] relates to COLO 205.
Assay [3] relates to DU-145.
The subject of assay [4] is HCT-15.
For assay [5], the system named is HL-60.
Assay [6] concerns HT-29.
Assay [7] concerns KM12.
Assay [8] deals with M14.
The test system of assay [9] is MCF7.
Assay [10] concerns MDA-N.
The subject of assay [11] is MOLT-4.
Assay [12] deals with NCI-H226.
For assay [13], the system named is NCI-H522.
The subject of assay [14] is OVCAR-4.
In assay [15] the test system is SF-295.
Assay [16] has as its system SF-539.
Assay [17] deals with SK-MEL-5.
Assay [18] relates to SNB-75.
The test system of assay [19] is TK-10.
Assay [20] relates to UACC-257.

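1) Cells in 96-well plates. 2) Compound, 48 h, 5 concentrations. 3) Linear interpolation between surrounding doses. 4) Unreached endpoint = highest concentration. GI50 marks 50% less growth.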 The source made the active and inactive calls. No stated cut-off is given here; in the data, active = GI50 up to about 1.1 µM and inactive = higher.

As to `COc1cccc(NC(=O)CC(=O)N2N=C(C)C(/N=N\c3ccc(S(=O)(=O)c4ccc(/N=N/C5C(=O)N(C(=O)CC(=O)Nc6cccc(OC)c6)N=C5C)cc4)cc3)C2=O)c1` (stereo not given), the GI50 was > 100 µM (inactive) in assay [1]; > 100 µM (inactive) in assay [2]; > 100 µM (inactive) in assay [3]; over 100 µM in assay [4]; > 100 µM (inactive) in [5]; > 100 µM (inactive) in [6]. The GI50 in [7], in assay [8], in [9], in assay [10], in assay [11] and in [12] was > 100 µM (inactive) each time. Besides, the GI50 in [13], in assay [14], in assay [15], in assay [16], in [17] and in assay [18] was > 100 µM (inactive) each time. Further, the GI50 in [19] and in assay [20] was > 100 µM (inactive) in each case.

For the compound `COc1cc(/C=C/C(=N\NS(=O)(=O)c2ccc(C)cc2)c2sc(NNC(C)=O)nc2C)ccc1O`, the GI50 in assay [1] is > 100 µM (inactive); in assay [2], > 100 µM (inactive); in assay [3] it was > 100 µM (inactive); in assay [4] it was over 100 µM; in [5] it was > 100 µM (inactive); in assay [6] it was > 100 µM (inactive). The GI50 in [7], in assay [8], in assay [9], in assay [10], in assay [11] and in assay [12] was > 100 µM (inactive) each time. Also, the GI50 in [13], in assay [14], in assay [15], in assay [16], in [17] and in [18] was > 100 µM (inactive) each time. In addition, the GI50 in assay [19] and in [20] was > 100 µM (inactive) each time.

Turning to `Cc1nc2nn[nH]n2c(=O)c1CCO`, the GI50 in assay [1] was > 100 µM (inactive); in [2], > 100 µM (inactive); in [3], > 100 µM (inactive); in [4] it was over 100 µM; in assay [5], > 100 µM (inactive); in assay [6] it was > 100 µM (inactive). For the same compound, the GI50 in assay [7], in assay [8], in assay [9], in [10], in [11] and in assay [12] was > 100 µM (inactive) in each case. The GI50 in assay [13] was > 100 µM (inactive); in assay [14], > 100 µM (inactive); in [15], > 100 µM (inactive); in [16], > 100 µM (inactive); in assay [17], > 100 µM (inactive); in [18] it was 26.6 µM (inactive). Moreover, the GI50 in assay [19] and in assay [20] was > 100 µM (inactive) throughout.

Consider `CC(C)C(/C=C/c1ccc(Cl)c(Cl)c1)=N\NC(=O)N/N=C(/C=C/c1ccc(Cl)c(Cl)c1)C(C)C`, for which the GI50 in assay [1] is > 100 µM (inactive); in assay [2] it was > 100 µM (inactive); in assay [3] it was > 100 µM (inactive); in [4], over 100 µM; in assay [5] it was 80 µM (inactive); in [6], > 100 µM (inactive). In addition, the GI50 in assay [7], in assay [8], in [9], in assay [10], in assay [11] and in assay [12] was > 100 µM (inactive) in each case. The GI50 in [13], in assay [14], in assay [15], in [16], in assay [17] and in assay [18] was > 100 µM (inactive) throughout. The GI50 in [19] and in assay [20] was > 100 µM (inactive) throughout.

With `COc1cc(/C=C2\N=C(c3ccccc3)N(/N=C3\C(=O)Nc4ccccc43)C2=O)cc(OC)c1OC`, the GI50 was > 100 µM (inactive) in assay [1]; 57.4 µM (inactive) in assay [2]; > 100 µM (inactive) in assay [3]; over 100 µM in [4]; 94.4 µM (inactive) in assay [5]; > 100 µM (inactive) in [6]. Further, the GI50 in assay [7] was > 100 µM (inactive); in assay [8], > 100 µM (inactive); in assay [9], > 100 µM (inactive); in [10], 42.3 µM (inactive); in assay [11], 25.4 µM (inactive); in assay [12], 41.7 µM (inactive). Also, the GI50 was 27.8 µM (inactive) in assay [13]; 61.9 µM (inactive) in assay [14]; > 100 µM (inactive) in assay [15]; > 100 µM (inactive) in assay [16]; > 100 µM (inactive) in [17]; > 100 µM (inactive) in assay [18]. The GI50 in assay [19] and in assay [20] was > 100 µM (inactive) in each case.

For the compound `CSC(=Nc1nnc(-c2ccc([N+](=O)[O-])cc2)s1)SC`, the GI50 in assay [1] was 20.7 µM (inactive); in assay [2] it was > 100 µM (inactive); in assay [3], > 100 µM (inactive); in assay [4], over 95.5 µM; in assay [5], > 100 µM (inactive); in assay [6], > 100 µM (inactive). Further, the GI50 was > 94.8 µM (inactive) in assay [7]; > 90.6 µM (inactive) in assay [8]; 36.6 µM (inactive) in [9]; > 72.9 µM (inactive) in assay [10]; > 100 µM (inactive) in assay [11]; 33.7 µM (inactive) in assay [12]. The GI50 was 15.5 µM (inactive) in assay [13]; 45.8 µM (inactive) in assay [14]; 18.5 µM (inactive) in [15]; 18.1 µM (inactive) in assay [16]; 55.7 µM (inactive) in assay [17]; 11.9 µM (inactive) in assay [18]. The GI50 is 16.6 µM (inactive) in assay [19] and > 93.1 µM (inactive) in [20].

With `Cc1c(C(=O)Nc2ccccc2)nnn1-c1ccnc2cc(C(F)(F)F)ccc12`, the GI50 in assay [1] was 74 µM (inactive); in [2], 55 µM (inactive); in [3] it was 49.3 µM (inactive); in assay [4], 45.3 µM; in assay [5], 35 µM (inactive); in assay [6] it was 80.2 µM (inactive). Further, the GI50 in assay [7] is 50.8 µM (inactive); in [8] it was 41.9 µM (inactive); in assay [9] it was 56.5 µM (inactive); in assay [10] it was 33.3 µM (inactive); in assay [11], 34 µM (inactive); in assay [12] it was 57.4 µM (inactive). Also, the GI50 in assay [13] was 64.7 µM (inactive); in [14] it was 34.5 µM (inactive); in assay [15] it was 46.7 µM (inactive); in assay [16], > 100 µM (inactive); in [17], 20.5 µM (inactive); in assay [18], 34.4 µM (inactive). The results for the GI50 in [19] and in assay [20] were 85.5 µM (inactive) and 22.1 µM (inactive), respectively.

Consider `COc1cc(C2C=C(c3ccccc3)Oc3cc4c(cc32)OCO4)cc(OC)c1OC` (stereo not given), for which the GI50 in [1] was 0.386 µM (active); in assay [2], 0.33 µM (active); in assay [3] it was 0.361 µM (active); in assay [4], 0.324 µM; in assay [5] it was 0.521 µM (active); in [6] it was 0.324 µM (active). The GI50 was 0.38 µM (active) in assay [7]; 0.35 µM (active) in assay [8]; 0.409 µM (active) in assay [9]; 0.249 µM (active) in assay [10]; 0.43 µM (active) in [11]; 0.376 µM (active) in assay [12]. Besides, the GI50 in assay [13] was 0.327 µM (active); in assay [14] it was 6.37 µM (inactive); in [15] it was 0.124 µM (active); in [16], 0.265 µM (active); in [17], 0.502 µM (active); in [18], 2.4 µM (inactive). The GI50 was > 36.2 µM (inactive) in assay [19] and 3.33 µM (inactive) in assay [20].

With `COC1(C)Cc2c(c(C)c(O)c3c2C(=O)C=C(Cl)C3=O)O1` (stereo not given), the GI50 was > 100 µM (inactive) in assay [1]; 18.2 µM (inactive) in assay [2]; 91.4 µM (inactive) in [3]; 45.8 µM in assay [4]; 3.48 µM (inactive) in assay [5]; 28.9 µM (inactive) in assay [6]. Besides, the GI50 in [7] is > 100 µM (inactive); in assay [8] it was 21.8 µM (inactive); in assay [9], 41.8 µM (inactive); in assay [10] it was 34.9 µM (inactive); in [11], 7.5 µM (inactive); in assay [12] it was > 100 µM (inactive). For the same compound, the GI50 in assay [13] is 16.9 µM (inactive); in assay [14], 41.3 µM (inactive); in assay [15] it was > 100 µM (inactive); in assay [16] it was > 100 µM (inactive); in assay [17], 40.8 µM (inactive); in assay [18] it was > 100 µM (inactive). Besides, the GI50 in [19] is 22.7 µM (inactive); in [20], > 56.5 µM (inactive).

Turning to `O=c1[nH]c(=O)n(C2CC(O)C(CO)O2)cc1I` (stereo not given), the GI50 in assay [1] is > 100 µM (inactive); in assay [2], > 100 µM (inactive); in assay [3], > 100 µM (inactive); in [4] it was over 100 µM; in assay [5], > 81.3 µM (inactive); in assay [6] it was > 100 µM (inactive). The GI50 in assay [7] is > 100 µM (inactive); in assay [8], > 70.3 µM (inactive); in [9], 18.5 µM (inactive); in assay [10], > 100 µM (inactive); in assay [11], 75.7 µM (inactive); in assay [12], > 100 µM (inactive). For the same compound, the GI50 in assay [13], in [14], in assay [15], in assay [16], in [17] and in assay [18] was > 100 µM (inactive) in each case. Moreover, the GI50 in assay [19] and in assay [20] was > 100 µM (inactive) in each case.
